From patent US20080085888A1, “Therapeutic Combinations” (priority 2006, published 2008)

Legend:
[1] = tested on: CF-1 male mice; test: Haloperidol-induced catalepsy model of EPS; format: in vivo, mouse
Text: III. Blockade of Haloperidol-Induced Catalepsy
Haloperidol-induced catalepsy model of EPS: Haloperidol is a typical or first-generation antipsychotic drug that while effective is prone to produce extrapyramidal symptoms (EPS) in humans. Other antipsychotic drugs (e.g. chlorpromazine, risperidone) can also cause EPS in patients and this side effect can limit the use of these drugs. In rodents, drug-induced catalepsy (a trance-like state of waxy immobility) can be used to assess the risk of EPS for antipsychotic drugs. Haloperidol reliably induces catalepsy in mice and rats. Test compounds that reduce catalepsy in haloperidol-treated rats may reduce antipsychotic drug-induced EPS.
Haloperidol-induced catalepsy in mice model: CF-1 male mice (Charles River, 20-30 gm, 10 mice per dose) were dosed orally with compound (b) at 0.06, 0.19, 0.6 and 1.9 mg/kg or vehicle (distilled water). Thirty minutes later, all mice were dosed with 2 mg/kg of haloperidol s.c. At 60 minutes and 4 hours after haloperidol dosing, the experimenter gently placed both forepaws of each animal on a metal bar (4 mm in diameter) that was fixed horizontally 5 cm above the test floor. The length of time (in seconds) during which each mouse maintained the initial forepaw bar position was recorded (cataleptic pose). Maximum cut-off time was 60 seconds. The same experimental design was performed on two consecutive days, and results were combined from both experiments. Therefore, the final results are from groups of 20 mice.

[2] = tested on: male Long Evans rats; test: Blockade of D-amphetamine-induced locomotor activity (LMA); format: in vivo, rat; conditions: for attenuation of amphetamine-induced locomotor activity: D-amphetamine 1 mg/kg s.c.
[3] = tested on: rodent; conditions: cited from earlier work; for effect on haloperidol-induced catalepsy: Levin and Lippiello 1999
[4] = tested on: male, Long Evans rats; test: Spontaneous locomotor activity (sLMA), quetiapine-induced sedation
Text: I. Attenuation of Quetiapine-Induced Sedation Using Spontaneous Locomotor Activity (sLMA)
Quetiapine is known to have sedative properties in humans. Quetiapine can induce sedation in rats and is manifested in various behaviors including reductions in spontaneous locomotor activity (sLMA). A test compound that increases sLMA in quetiapine treated rats may reduce quetiapine-induced sedation in human subjects.
The general procedure was to assess the effect of a particular drug on sLMA in rats by administering the drug after baseline assessment and then waiting an appropriate amount of time for the drug to achieve significant levels in plasma and brain.
Quetiapine was solubilized in saline plus some drops of 85% lactic acid and sonicated for around 20-30 minutes then adjusted with NaOH 1N for pH ˜4.8 to 5.0. The solution was stirred during the experiment to ensure uniform composition prior to administration. Quetiapine was administered by s.c. injection 15 minutes before testing. The dose volume was 4 ml/kg.
Compound b was dissolved in H2O and administered by oral gavage (p.o.) 30 minutes before testing with a dose volume of 1 ml/kg.
The effect of Compound b alone on sLMA was tested by administering doses of 0.006, 0.019, 0.06 or 0.19 mg/kg by oral gavage (p.o.) 30 minutes before testing. […]
Exploratory activity was monitored and quantified using open field activity systems (hardware and software) purchased from Med Associates. […]
Statistical analysis was made of total distance traveled over the 5 minutes test period for a spontaneous locomotor activity using one-way analysis ANOVA and Turkey's multiple-range analysis. All values are expressed as mean and SD.

O=C(CCCN1CCC(O)(c2ccc(Cl)cc2)CC1)c1ccc(F)cc1 [Haloperidol, haloperidol]
mice with catalepsy of up to 60 seconds ([1]; haloperidol 2 mg/kg s.c. alone): 60-90 % of mice

C[C@H](N)Cc1ccccc1 [Amphetamine, D-amphetamine]
locomotor activity in habituated rats ([2]; D-amphetamine 1 mg/kg s.c. alone, p<0.001): significantly increased

CNCC/C=C/c1cccnc1 [RJR 2403]
effect on haloperidol-induced catalepsy [3]: did not significantly worsen haloperidol-induced catalepsy, they did not reduce it either

CN1CCCC1c1cccnc1 (centres unmarked) [nicotine]
effect on haloperidol-induced catalepsy [3]: did not significantly worsen haloperidol-induced catalepsy, they did not reduce it either | effect on catalepsy in rodent ([3]; Sanberg et al. 1993): can worsen catalepsy

CN[C@@H](C)C/C=C/c1cncc(OC(C)C)c1.O=C(O)c1ccc(O)cc1 [Compound b, (2S)-(4E)-N-Methyl-5-[3-(5-isopropoxypyridin)yl]-4-penten-2-amine p-hydroxybenzoate]
reduction of D-amphetamine-induced locomotor activity ([2]; Compound b alone 0.19 mg/kg p.o.): did not significantly reduce | reduction of D-amphetamine-induced locomotor activity ([2]; combination: Compound b 0.19 mg/kg p.o. with quetiapine 10 mg/kg s.c., vs D-amphetamine alone group): did significantly reduce | reduction of D-amphetamine-induced locomotor activity ([2]; combination: Compound b 0.019 or 0.06 mg/kg p.o. with quetiapine 10 mg/kg s.c.): did not significantly reduce | reduction of haloperidol induced catalepsy ([1]; 60 minute time point, Compound b 0.06, 0.19, 0.6 and 1.9 mg/kg p.o. 30 min before haloperidol 2 mg/kg s.c., P<0.05): reduced haloperidol induced catalepsy | reduction of haloperidol induced catalepsy ([1]; 4 hour time point, 1.9 mg/kg p.o. (only this dose) before haloperidol 2 mg/kg s.c.): significant reduction | reduction in sLMA compared to vehicle-vehicle controls ([4]; Compound b 0.19 mg/kg p.o. administered before quetiapine 40 mg/kg s.c. (combination)): did not result in a significant reduction in sLMA | suppression of sLMA ([4]; Compound b 0.19 mg/kg p.o. and then vehicle): no significant suppression of sLMA | effect on sLMA (total distance traveled) ([4]; Compound b alone, 0.006, 0.019, 0.06 and 0.19 mg/kg p.o., 30 min before testing, 5 min test): no significant effect

OCCOCCN1CCN(C2=Nc3ccccc3Sc3ccccc32)CC1 [quetiapine, 11-[4-[2-(2-hydroxyethoxy)ethyl]-1-piperazinyl]dibenzo[b,f][1,4]thiazepine]
attenuation of amphetamine-induced locomotor activity ([2]; quetiapine alone 10 mg/kg s.c.): did not significantly attenuate | attenuation of amphetamine-induced locomotor activity ([2]; quetiapine alone 10 mg/kg s.c., listed as Quetiapine): not | attenuation of amphetamine-induced locomotor activity ([2]; quetiapine alone 20, 40 and 60 mg/kg s.c.): significantly attenuated | threshold for significantly reducing D-amphetamine-induced locomotor activity ([2]; quetiapine alone s.c.): 20 mg/kg
